Test system: spontaneously hypertensive rats (SHR)
Test: Test for inhibiting hypertension in rats (systolic BP at the tail pulse), SHR
Format: in vivo
Details: for changes in blood pressure (inhibition of hypertension): male SHR, oral once a day for 8 weeks, quercetin 0.3-2.7 mg/day/kg and/or arginine 0.03-0.15 mg/day/kg, FIG. 2
Description: Quercetin was extracted by adding 100 g of washed onion skins to 10 liters of water heated to 80° C., and impurities were removed to obtain quercetin-containing solution. The amount of quercetin contained in the quercetin-containing solution was 0.1 mg/ml. The quercetin-containing solution was appropriately concentrated with an evaporator.
11 week old male spontaneously hypertensive rats (SHR) were divided into A to I groups (9 groups consisting of 5 rats per group) and 11 week old male normotensive Wistar Kyoto (WKY) rats were divided into J to L groups (3 groups consisting of 5 rats per group) so that averages of weight and blood pressure (BP) of the respective groups were nearly equal. They were pre-bred in each breeding cage at 22.0±1.0° C. temperature, 60±10% of humidity and 12 hour light-dark cycles for a week while taking feeds and water ad libitum.
After the pre-breeding period, they were bred with the same conditions for 8 weeks. The quercetin-containing solution obtained in the above-mentioned preparation method and commercially-available arginine powder (produced by Ajinomoto Co., Inc.) were blended together so that amounts of quercetin and arginine would be the respective amounts in Table 7, below. Each mixture was orally administered to the rats in each group once a day. The rats took feed and water ad libitum during the test.
The blood pressure (BP) of rats was measured once a week. After each rat was warmed and climatized itself in a warmer at 38° C. for a few minutes, a systolic BP at the tail pulse was measured with an automatic sphygmomanometer (BP-98A; Softron Co., Ltd.) In each rat, the BP was measured for three times per one measurement and an average of the three measured values was recorded.

Row | SMILES | changes in blood pressure (inhibition of hypertension) | inhibition of hypertension with purified quercetin instead of quercetin-containing solution (same test, purified quercetin used instead of the quercetin-containing solution)
1 | N=C(N)NCCC[C@H](N)C(=O)O [arginine] | hypertensions were inhibited | 
2 | O=c1c(O)c(-c2ccc(O)c(O)c2)oc2cc(O)cc(O)c12 [purified quercetin, quercetin] |  | a similar result can be achieved
3 | O=c1c(O)c(-c2ccc(O)c(O)c2)oc2cc(O)cc(O)c12 [quercetin] | hypertensions were inhibited | 

Reference: patent US20090197942A1, “Method For Producing Polyphenol-Rich Composition” (KYUSAI CO., LTD., priority 2006, published 2009)
